Data: the supplement of paper PMC10307832

Tests used:
Assay in all cases: relative viability (nuclei count vs DMSO), 5 days (fraction); higher = more cells survive
Irinotecan + Tozasertib = compound: CCc1c2c(nc3ccc(OC(=O)N4CCC(N5CCCCC5)CC4)cc13)-c1cc3c(c(=O)n1C2)COC(=O)[C@]3(O)CC [Irinotecan] + Cc1cc(Nc2cc(N3CCN(C)CC3)nc(Sc3ccc(NC(=O)C4CC4)cc3)n2)n[nH]1 [Tozasertib] (partner 0.1 µM)
Procedure, shortened: (§1)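 Lung cancer cell lines were seeded in 1536-well plates and dosed by pin tool the next day, with either a single drug or a fixed anchor-drug dose combined with five library-drug doses (not always all listed) spaced in √10 steps. Five days later, one step fixed the cells and stained their nuclei (final 0.05% Triton X-100, 1% formaldehyde, 1 ug/ml Hoechst), and nuclei were counted on 4× images. Relative viability is the nuclei count in treated wells divided by the count in vehicle wells, and each value is the median of duplicate plates.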

MK-8033 + AZD7762 = compound: Cn1cc(-c2cnc3ccc4ccc(CS(=O)(=O)NCc5ccccn5)cc4c(=O)c3c2)cn1 [MK-8033] + NC(=O)Nc1cc(-c2cccc(F)c2)sc1C(=O)N[C@H]1CCCNC1 [AZD7762] (partner 0.2 µM)
Procedure, shortened: as §1

RU-SKI 43 + Palbociclib = compound: CC[C@@H](C)CNCC(=O)N1CCC2=C([C@@H]1COC3=CC=CC(=C3)C)C=CS2 [RU-SKI 43] + CC(=O)c1c(C)c2cnc(Nc3ccc(N4CCNCC4)cn3)nc2n(C2CCCC2)c1=O [Palbociclib] (partner 0.5 µM)
Procedure, shortened: as §1

MK-8033 + Navitoclax = compound: Cn1cc(-c2cnc3ccc4ccc(CS(=O)(=O)NCc5ccccn5)cc4c(=O)c3c2)cn1 [MK-8033] + CC1(C)CCC(c2ccc(Cl)cc2)=C(CN2CCN(c3ccc(C(=O)NS(=O)(=O)c4ccc(N[C@H](CCN5CCOCC5)CSc5ccccc5)c(S(=O)(=O)C(F)(F)F)c4)cc3)CC2)C1 [Navitoclax] (partner 0.5 µM)
Procedure, shortened: as §1

Row | Cell Line | relative viability (Irinotecan + Tozasertib; first compound 0.6325 µM) | relative viability (Irinotecan + Tozasertib; first compound 2 µM) | relative viability (Irinotecan + Tozasertib; first compound 6.325 µM) | relative viability (Irinotecan + Tozasertib; first compound 20 µM) | relative viability (MK-8033 + AZD7762; first compound 0.02 µM) | relative viability (MK-8033 + AZD7762; first compound 0.06325 µM) | relative viability (MK-8033 + AZD7762; first compound 0.2 µM) | relative viability (MK-8033 + AZD7762; first compound 0.6325 µM) | relative viability (MK-8033 + AZD7762; first compound 2 µM) | relative viability (RU-SKI 43 + Palbociclib; first compound 0.1 µM) | relative viability (RU-SKI 43 + Palbociclib; first compound 0.3162 µM) | relative viability (RU-SKI 43 + Palbociclib; first compound 1 µM) | relative viability (RU-SKI 43 + Palbociclib; first compound 3.162 µM) | relative viability (RU-SKI 43 + Palbociclib; first compound 10 µM) | relative viability (MK-8033 + Navitoclax; first compound 0.02 µM) | relative viability (MK-8033 + Navitoclax; first compound 0.06325 µM) | relative viability (MK-8033 + Navitoclax; first compound 0.2 µM) | relative viability (MK-8033 + Navitoclax; first compound 0.6325 µM) | relative viability (MK-8033 + Navitoclax; first compound 2 µM)
1 | NCI-H2170 | 0.801 | 0.701 | 0.236 | 0.181 | 0.733 | 0.768 | 0.829 | 0.828 | 0.848 | 0.394 | 0.467 | 0.419 | 0.453 | 0.372 | 0.559 | 0.55 | 0.612 | 0.586 | 0.597
2 | NCI-H2347 | 0.441 | 0.502 | 0.546 | 0.441 | 0.717 | 0.784 | 0.68 | 0.722 | 0.831 | 0.434 | 0.329 | 0.441 | 0.403 | 0.394 | 0.844 | 0.741 | 0.779 | 0.827 | 0.737
3 | NCI-H2405 |  | 0.605 | 0.354 | 0.246 | 0.807 | 0.734 | 0.638 | 0.701 | 0.742 | 0.504 | 0.603 | 0.551 | 0.576 | 0.503 | 0.825 | 0.727 | 0.733 | 0.847 | 0.933
4 | NCI-H3122 | 0.461 | 0.339 | 0.2 | 0.0585 | 0.931 | 0.886 | 0.965 | 1.06 | 0.977 | 0.193 | 0.166 | 0.185 | 0.182 | 0.166 | 1.03 | 1 | 1.03 | 1.01 | 1.05
5 | PC-3 [JPC-3] | 0.78 | 0.81 | 0.363 | 0.314 | 0.705 |  | 0.656 | 0.843 | 0.782 | 0.534 | 0.479 | 0.561 | 0.558 | 0.343 | 0.746 |  | 0.775 | 0.726 | 0.749
6 | PC-14 |  | 0.51 | 0.19 | 0.174 | 0.357 | 0.296 | 0.351 | 0.302 | 0.354 | 0.575 | 0.668 | 0.798 | 0.451 | 0.401 | 0.96 | 0.944 | 0.987 | 1.06 | 1.02
7 | RERF-LC-KJ | 0.444 | 0.438 | 0.358 | 0.179 | 0.984 | 0.84 | 1.01 | 0.981 | 0.942 | 1.1 | 1.4 | 1.15 | 1 | 0.851 | 0.972 | 0.867 | 0.756 | 0.844 | 0.882
